Source: ChEMBL document CHEMBL4831500, “Discovery of first-in-class imidazothiazole-based potent and selective ErbB4 (HER4) kinase inhibitors” (Eur J Med Chem, 2021)

What was measured:
[1] = test system: Panel NCI-60 (60 carcinoma cell lines); assay: Growth inhibition of human panel NCI-60 (60 carcinoma cells) assessed as growth percent at 10 uM measured after 48 hrs by SRB assay relative to control; type: functional; details: read-out: Activity
SK-MEL-5 = assay: Antiproliferative activity against human SK-MEL-5 cells assessed as cell growth inhibition measured after 48 hrs by SRB assay; type: functional, cell-based; details: SK-MEL-5, 48 h
UO-31 = assay: Antiproliferative activity against human UO-31 cells assessed as cell growth inhibition measured after 48 hrs by SRB assay; type: functional, cell-based; details: UO-31, 48 h
DU-145 = assay: Antiproliferative activity against human DU-145 cells assessed as cell growth inhibition measured after 48 hrs by SRB assay; type: functional, cell-based; details: DU-145, 48 h
OVCAR-4 = assay: Antiproliferative activity against human OVCAR-4 cells assessed as cell growth inhibition measured after 48 hrs by SRB assay; type: functional, cell-based; details: OVCAR-4, 48 h
HL-60(TB) = assay: Antiproliferative activity against human HL-60(TB) cells assessed as cell growth inhibition measured after 48 hrs by SRB assay; type: functional, cell-based; details: HL-60, 48 h
NCI-H322M = assay: Antiproliferative activity against human NCI-H322M cells assessed as cell growth inhibition measured after 48 hrs by SRB assay; type: functional, cell-based
MOLT-4 = assay: Antiproliferative activity against human MOLT-4 cells assessed as cell growth inhibition measured after 48 hrs by SRB assay; type: functional, cell-based; details: MOLT-4, 48 h
NCI-H522 = assay: Antiproliferative activity against human NCI-H522 cells assessed as cell growth inhibition measured after 48 hrs by SRB assay; type: functional, cell-based; details: NCI-H522, 48 h
HCC 2998 = assay: Antiproliferative activity against human HCC 2998 cells assessed as cell growth inhibition measured after 48 hrs by SRB assay; type: functional, cell-based; details: HCC 2998, 48 h
MDA-MB-468 = assay: Antiproliferative activity against human MDA-MB-468 cells assessed as cell growth inhibition measured after 48 hrs by SRB assay; type: functional, cell-based; details: MDA-MB-468, 48 h
SNB-75 = assay: Antiproliferative activity against human SNB-75 cells assessed as cell growth inhibition measured after 48 hrs by SRB assay; type: functional, cell-based; details: SNB-75, 48 h
U-251 = assay: Antiproliferative activity against human U-251 cells assessed as cell growth inhibition measured after 48 hrs by SRB assay; type: functional, cell-based; details: U-251, 48 h

SMILES | growth at 10 µM [1] | further results
CS(=O)(=O)c1cccc(-c2c(-c3cccc(OCCc4ccccc4)c3)nc3sccn23)c1 | 95.3% | –
CS(=O)(=O)c1cccc(-c2c(-c3cccc(O)c3)nc3sccn23)c1 | 99.2% | –
CS(=O)(=O)c1nccc(-c2c(-c3cccc(O)c3)nc3sccn23)n1 | 90% | –
CN(C)CCOc1ccc(-c2nc3sccn3c2-c2ccnc(S(C)(=O)=O)n2)cc1 | 102% | –
c1ccc(COc2cccc(-c3nc4sccn4c3-c3ccccc3)c2)cc1 | 99.3% | –
Fc1ccc(CCOc2cccc(-c3nc4sccn4c3-c3ccncn3)c2)cc1 | 96% | –
Fc1ccc(COc2cccc(-c3nc4sccn4c3-c3ccncn3)c2)cc1 | 76.3% | –
CS(=O)(=O)c1nccc(-c2c(-c3cccc(OCCN4CCOCC4)c3)nc3sccn23)n1 | 83.5% | –
CS(=O)(=O)c1nccc(-c2c(-c3cccc(OCc4ccccc4)c3)nc3occn23)n1 | 101% | –
CS(=O)(=O)c1nccc(-c2c(-c3ccc(OCc4ccccc4)cc3)nc3sccn23)n1 | 95.1% | –
CS(=O)(=O)c1cccc(-c2c(-c3cccc(OCc4ccccc4)c3)nc3sccn23)c1 | 87.6% | –
COc1ccc(-c2nc3sccn3c2-c2ccnc(S(C)(=O)=O)n2)cc1 | 73% | –
CS(=O)(=O)c1nccc(-c2c(-c3cccc(OCc4ccc(F)cc4)c3)nc3occn23)n1 | 89.7% | –
COc1cccc(-c2nc3sccn3c2-c2cccc(S(C)(=O)=O)c2)c1 | 99.8% | –
CS(=O)(=O)c1nccc(-c2c(-c3cccc(OCCc4ccccc4)c3)nc3sccn23)n1 | 96% | –
c1ccc(CCOc2cccc(-c3nc4sccn4c3-c3ccncn3)c2)cc1 | 96.4% | –
CN(C)CCOc1cccc(-c2nc3sccn3c2-c2ccnc(S(C)(=O)=O)n2)c1 | 93.7% | –
COc1cccc(-c2nc3sccn3c2-c2ccccc2)c1 | 96.6% | –
CS(=O)(=O)c1nccc(-c2c(-c3ccc(OCCN4CCOCC4)cc3)nc3sccn23)n1 | 101% | –
CS(=O)(=O)c1cccc(-c2c(-c3cccc(OCCc4ccc(F)cc4)c3)nc3sccn23)c1 | 82.9% | –
C=CC(=O)N1CCC[C@@H](n2nc(-c3ccc(Oc4ccccc4)cc3)c3c(N)ncnc32)C1 [IBRUTINIB] | – | IC50 (SK-MEL-5): 6.31 µM; IC50 (UO-31): 1260 nM; IC50 (DU-145): 2000 nM; IC50 (OVCAR-4): 7.94 µM; IC50 (HL-60(TB)): 19.9 µM; IC50 (NCI-H322M): 100 nM; IC50 (MOLT-4): 3.98 µM; IC50 (NCI-H522): 60 nM; IC50 (HCC 2998): 15.8 µM; IC50 (MDA-MB-468): 30 nM; IC50 (SNB-75): 3.16 µM; IC50 (U-251): 6.31 µM

SMILES | growth at 10 µM [1] | further results
CS(=O)(=O)c1nccc(-c2c(-c3ccc(O)cc3)nc3sccn23)n1 | 99.7% | –
CS(=O)(=O)c1nccc(-c2c(-c3cccc(O)c3)nc3occn23)n1 | 102% | –
CS(=O)(=O)c1nccc(-c2c(-c3ccc(OCCc4ccccc4)cc3)nc3sccn23)n1 | 91.2% | –
Oc1cccc(-c2nc3sccn3c2-c2ccncn2)c1 | 85.5% | –
CS(=O)(=O)c1nccc(-c2c(-c3cccc(OCCc4ccc(F)cc4)c3)nc3sccn23)n1 | 91.6% | –
CC(C)N(CCOc1ccc(-c2nc3sccn3c2-c2ccnc(S(C)(=O)=O)n2)cc1)C(C)C | 81.1% | –
Fc1ccc(CCOc2cccc(-c3nc4sccn4c3-c3ccccc3)c2)cc1 | 87.5% | –
CS(=O)(=O)c1cccc(-c2c(-c3cccc(OCc4ccc(F)cc4)c3)nc3sccn23)c1 | 74.7% | –
CS(=O)(=O)c1cccc(-c2c(-c3cccc(OCC(=O)c4ccccc4)c3)nc3sccn23)c1 | 91% | –
CS(=O)(=O)c1nccc(-c2c(-c3ccc(OCCN4CCCC4)cc3)nc3sccn23)n1 | 101% | –
CC(C)N(CCOc1cccc(-c2nc3sccn3c2-c2ccnc(S(C)(=O)=O)n2)c1)C(C)C | 81.8% | –
O=C(COc1cccc(-c2nc3sccn3c2-c2ccccc2)c1)c1ccccc1 | 84.6% | –
c1ccc(CCOc2cccc(-c3nc4sccn4c3-c3ccccc3)c2)cc1 | 98.9% | –
CNC(=O)c1cc(Oc2ccc(NC(=O)Nc3ccc(Cl)c(C(F)(F)F)c3)cc2)ccn1 [SORAFENIB] | – | IC50 (SK-MEL-5): 2.51 µM; IC50 (NCI-H522): 5010 nM
O=C(COc1cccc(-c2nc3sccn3c2-c2ccncn2)c1)c1ccccc1 | 97% | –
Fc1ccc(COc2cccc(-c3nc4sccn4c3-c3ccccc3)c2)cc1 | 97.8% | –
COc1cccc(-c2nc3occn3c2-c2ccnc(S(C)(=O)=O)n2)c1 | 96% | –
CS(=O)(=O)c1nccc(-c2c(-c3cccc(OCCN4CCCC4)c3)nc3sccn23)n1 | 94.2% | –
Oc1cccc(-c2nc3sccn3c2-c2ccccc2)c1 | 94% | –
CS(=O)(=O)c1nccc(-c2c(-c3cccc(OCC(=O)c4ccccc4)c3)nc3sccn23)n1 | 94% | –
CS(=O)(=O)c1nccc(-c2c(-c3cccc(OS(N)(=O)=O)c3)nc3sccn23)n1 | 97.9% | –
